Assay results: PubChem BioAssay (NCI)
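How tested: cells in 96-well plates exposed to compound for 48 hours at five concentrations. The concentration for 50% growth inhibition is given as GI50. The concentration for full growth arrest is given as TGI.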

Tests used:
Assay in all cases: growth of human tumour cells (NCI), 48 h
[1] = test system: MOLT-4 leukemia
[2] = test system: A498 renal
[3] = test system: U251 CNS
[4] = test system: EKVX NSCLC
[5] = test system: HCT-15 colon
[6] = test system: OVCAR-5 ovarian
[7] = test system: SK-MEL-28 melanoma
[8] = test system: ACHN renal
[9] = test system: RXF 393 renal
[10] = test system: CCRF-CEM leukemia

Structure (SMILES)	TGI [1] [µM]	TGI [2] [µM]	TGI [3] [µM]	TGI [4] [µM]	TGI [5] [µM]	TGI [6] [µM]	TGI [7] [µM]	TGI [8] [µM]	TGI [9] [µM]	TGI [10] [µM]	GI50 [1] [µM]	GI50 [2] [µM]	GI50 [3] [µM]	GI50 [4] [µM]	GI50 [5] [µM]	GI50 [6] [µM]	GI50 [7] [µM]	GI50 [8] [µM]	GI50 [9] [µM]	GI50 [10] [µM]
CC(C)C(O)(C(C)C)C(C)C	> 100	> 100	> 100	> 100	> 100	> 100	> 100	> 100	> 100	> 100	–	–	–	–	–	–	–	–	–	–
O=C(Nc1ccc(Cl)cc1)C1C(=O)C(=O)N(c2ccc(Cl)cc2)C1=O (stereo not given)	> 100	> 100	> 100	> 100	> 100	> 100	> 100	> 100	> 100	> 100	–	–	–	–	–	–	–	–	–	–
O=C(O)c1ccc(CN2CCC(CN[C@@H]3C[C@H]3c3ccccc3)CC2)cc1	> 100	> 100	> 100	> 100	> 100	> 100	> 100	> 100	> 100	> 100	> 100	> 100	> 100	> 100	> 100	> 100	> 100	> 100	> 100	> 100
C=C(C)[C@@H]1CC[C@]2(COCCCN)CC[C@]3(C)[C@H](CC[C@@H]4[C@@](C)(CCCNCCCN)[C@H](C(=C)C)CC[C@]43C)[C@@H]12	4.47	37.1	3.19	3.21	2.63	3.12	3.14	3.13	2.98	7.34	1.96	14.5	1.7	1.71	1.3	1.71	1.72	1.75	1.59	2.39
Cc1nnc(-c2ccc(C)c(-c3ccc(C(=O)Nc4cccc(C#N)c4)cc3)c2)o1	> 25	> 25	> 25	> 25	> 25	> 25	> 25	> 25	> 25	> 25	> 25	> 25	> 25	> 25	> 25	> 25	> 25	> 25	> 25	> 25
CCCCCCCCCCCC(=O)OCCOCCOCCOCCOCCOC(=O)CCCCCCCCCCC	> 100	> 100	> 100	> 100	> 100	> 100	> 100	> 100	> 100	> 100	–	–	–	–	–	–	–	–	–	–
CN(C)Cc1cc(C(F)(F)F)ccc1C(O)(c1ccccc1)c1ccccc1	38.8	24.7	24.9	29.6	28.6	36.9	31	29.9	25.4	28.9	–	–	–	–	–	–	–	–	–	–
CC/C=C\C[C@H]1CC=C2C(=O)C=C[C@@H]2CC=CCCCC(=O)O[C@@H](CCCCC)CC=C2C(=O)C=C[C@@H]2CC=CCCCC(=O)O[C@@H](CCCCC)CC=C2C(=O)C=C[C@@H]2CC=CCCCC(=O)O[C@@H](CCCCC)CC=C2C(=O)C=C[C@@H]2CC=CCCCC(=O)O1	> 7.9	> 7.9	3.13	> 7.9	> 7.9	> 7.9	6.3	> 7.9	2.87	> 7.9	2.39	2.25	1.45	2.41	2.84	4.02	1.99	2.62	1.37	1.65
O=C1N/C(=C\[N+](=O)[O-])c2ccccc21	> 100	> 100	> 100	> 100	> 100	> 100	> 100	> 100	> 100	> 100	–	–	–	–	–	–	–	–	–	–
CCCC1(CC(=O)O)OCCc2c1[nH]c1ccccc21 (stereo not given)	> 100	> 100	> 100	> 100	> 100	> 100	> 100	> 100	> 100	> 100	–	–	–	–	–	–	–	–	–	–
Cc1ccc(S(=O)(=O)N=Nc2c(O)[nH]c3cc(O)c(C(=O)O)cc23)cc1	> 100	> 100	> 100	> 100	> 100	> 100	> 100	> 100	> 100	> 100	–	–	–	–	–	–	–	–	–	–
COCCOC(=O)C1=C(O)c2ccccc2S(=O)(=O)N1C	> 100	> 100	> 100	> 100	> 100	> 100	> 100	> 100	> 100	> 100	–	–	–	–	–	–	–	–	–	–
Oc1ccc2ccccc2c1N=Nc1cccc2ccccc12	> 100	> 100	> 100	> 100	> 100	> 100	> 100	> 100	> 100	> 100	–	–	–	–	–	–	–	–	–	–
O=C1C=CC(=O)C2C1C1(Cl)C(Cl)=C(Cl)C2(Cl)C1(Cl)Cl (stereo not given)	14.4	5.8	19.1	7.48	22.4	31.1	21.8	18.3	12	> 100	2.54	1.46	5.76	1.56	4.11	12.4	9.63	4.18	3.66	3.76
C#CC1(O)C(COP(=O)(O)OCC(COP(=O)(O)OCC2OC(n3cc(F)c(=O)[nH]c3=O)CC2O)OCCCCCCCCCCCCCCCCCC)OC(n2ccc(N)nc2=O)C1O (stereo not given)	> 100	12.1	> 100	25.8	> 100	> 52.6	> 100	> 100	6.33	> 39.7	0.348	0.421	0.135	0.618	0.134	5.36	7.4	0.149	0.393	0.217
